The values below come from US9023789B2, “Amylin analogs and pharmaceutical compositions thereof” (Novo Nordisk A/S, priority 2012, dated 2015).

A word on the IC50: it is the concentration needed to halve the response being measured. The EC50 is the concentration giving half of the maximal effect.

Numbered stars: 1 amine (or outer) side, 2 acyl side, 3 side chain; on linkers, the order of the positions; unused ones are H or OH. Bridge positions count the residues as written; N and C are the ends. Side chains are listed from the residue outwards. Peptide text beside a SMILES is read from it. * marks the point of attachment. C20 diacid = O=C(O)CCCCCCCCCCCCCCCCCCC(=O)*; γGlu = O=C(O)[C@H](CCC(=O)[*:2])N[*:1]

Assay [1] concerns the target T1, rat calcitonin receptor (Rattus norvegicus, UniProt P32214).
T1 construct: expressed in transfected cells; host or cells: BHK tk'ts 13 (transient, FuGENE 6), membranes
T1 sequence (P32214 25-479 isoform P32214-2 limits assumed): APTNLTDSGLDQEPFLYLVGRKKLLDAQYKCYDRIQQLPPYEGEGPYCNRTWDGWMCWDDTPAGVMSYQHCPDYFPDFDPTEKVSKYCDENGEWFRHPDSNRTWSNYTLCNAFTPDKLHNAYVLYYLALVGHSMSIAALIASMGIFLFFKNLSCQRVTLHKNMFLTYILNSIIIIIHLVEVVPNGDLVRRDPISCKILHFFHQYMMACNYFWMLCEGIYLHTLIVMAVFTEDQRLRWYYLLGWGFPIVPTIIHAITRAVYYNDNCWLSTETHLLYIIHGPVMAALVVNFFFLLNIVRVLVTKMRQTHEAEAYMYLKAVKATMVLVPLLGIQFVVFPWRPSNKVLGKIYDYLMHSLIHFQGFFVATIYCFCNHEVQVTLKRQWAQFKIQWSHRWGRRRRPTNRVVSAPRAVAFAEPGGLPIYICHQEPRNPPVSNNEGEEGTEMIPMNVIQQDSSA
In words: ASSAY (VIII) binding to the rat calcitonin receptor. As to conditions: Table 7, read-out: rCTR bind IC50. The method in brief:
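Rat calcitonin receptor is expressed transiently in BHK tk′ts 13 cells cultured in DMEM with 10% FBS. Roughly two days (approximately 48 hours) post-transfection, cells are harvested for membrane preparation.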

In assay [2] the target is T2, human amylin receptor (membranes from Amylin 3(a)/CRE-luc cells) (Homo sapiens, UniProt O60896+P30988).
T2 construct: expressed in transfected cells
T2 sequence (P30988 25-474): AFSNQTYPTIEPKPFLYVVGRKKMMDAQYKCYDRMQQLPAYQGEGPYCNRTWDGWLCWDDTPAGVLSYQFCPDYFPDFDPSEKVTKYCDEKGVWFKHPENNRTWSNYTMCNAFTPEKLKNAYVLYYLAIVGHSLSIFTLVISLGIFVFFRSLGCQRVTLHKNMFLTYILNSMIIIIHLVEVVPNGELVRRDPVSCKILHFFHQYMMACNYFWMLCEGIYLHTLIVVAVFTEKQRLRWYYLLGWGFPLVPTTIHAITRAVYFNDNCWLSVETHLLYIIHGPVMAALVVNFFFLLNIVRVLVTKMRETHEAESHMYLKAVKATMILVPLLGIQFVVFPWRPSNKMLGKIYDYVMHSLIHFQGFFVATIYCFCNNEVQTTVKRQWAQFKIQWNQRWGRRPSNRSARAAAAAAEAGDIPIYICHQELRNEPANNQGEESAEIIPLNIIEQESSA
T2 sequence (O60896 24-148 partner): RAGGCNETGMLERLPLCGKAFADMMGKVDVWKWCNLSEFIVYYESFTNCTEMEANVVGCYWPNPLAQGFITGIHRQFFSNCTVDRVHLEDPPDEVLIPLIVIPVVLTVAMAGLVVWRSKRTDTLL
In words: ASSAY (V) binding to the human amylin receptor (SPA, 125I-rat amylin).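 On all read-outs here: competition binding of cell membranes (35 ng/µL) mixed with SPA beads in 384-well plates at 40 µL total volume, read by scintillation counting.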 As to conditions: for IC50: Table 4, read-out: hAmylin-R bind IC50.

Assay [3] has as its target T3, human amylin 3(a) receptor (human calcitonin receptor + RAMP-3) in BHK570 cells (Homo sapiens, UniProt O60896+P30988).
T3 construct: expressed in transfected cells
In words: ASSAY (II)a functional assay, human amylin receptor (CRE luciferase). Type of assay: cell-based. As to conditions: for EC50: human amylin receptor functional potency, assay (II), read-out: hAmylin-R funct. EC50. The essentials:
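BHK cells stably carrying a CRE-luciferase reporter plus calcitonin receptor, or calcitonin receptor with RAMP-3 for the amylin 3(a) receptor, were seeded and kept overnight at 37° C. Compounds were added in assay medium with 10% FBS and 10 mM Hepes, pH 7.4, for 3 hours at 37° C, then luminescence was counted.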

Where [4] appears, read: Table 5, selectivity, hCTR bind IC50 / hAmylin-R bind IC50.
Where [5] appears, read: Table 5a, selectivity, hCTR bind IC50 / hAmylin-R bind IC50.
[6] abbreviates: Table 5b, selectivity, hCTR bind IC50 / hAmylin-R bind IC50.
[7] abbreviates: Table 5c, selectivity, hCTR bind IC50 / hAmylin-R bind IC50.
Setting [8] is: Table 7, human binding selectivity, included for comparison.
Setting [9] is: Table 7a (preferred compounds), human binding selectivity, included for comparison.
The mark [10] stands for this setting: ratio of human calcitonin receptor binding IC50 to human amylin receptor binding IC50.
[11] abbreviates: hCTR funct. EC50 divided by hAmylin-R funct. EC50.
Where [12] appears, read: hCTR funct. EC50 over hAmylin-R funct. EC50.
Where [13] appears, read: human functional selectivity: hCTR funct. EC50 / hAmylin-R funct. EC50.

In the case of `CC[C@H](C)[C@H](NC(=O)[C@H](C)NC(=O)CNC(=O)[C@H](Cc1ccccc1)NC(=O)[C@H](CC(N)=O)NC(=O)[C@@H]1CCCN1C(=O)[C@H](CO)NC(=O)[C@H](CO)NC(=O)[C@H](Cc1c[nH]cn1)NC(=O)[C@H](CCCNC(=N)N)NC(=O)[C@H](CC(C)C)NC(=O)[C@H](Cc1ccccc1)NC(=O)[C@H](CCC(=O)O)NC(=O)[C@H](C)NC(=O)[C@H](CC(C)C)NC(=O)[C@H](CCCNC(=N)N)NC(=O)[C@H](CCC(N)=O)NC(=O)[C@@H](NC(=O)[C@H](C)NC(=O)[C@@H]1CSSC[C@H](NC(=O)[C@@H](N)CCCCNC(=O)CC[C@H](NC(=O)CC[C@H](NC(=O)CCCCCCCCCCCCCCCCCCC(=O)O)C(=O)O)C(=O)O)C(=O)N[C@@H](CC(N)=O)C(=O)N[C@@H]([C@@H](C)O)C(=O)N[C@@H](C)C(=O)N[C@@H]([C@@H](C)O)C(=O)N1)[C@@H](C)O)C(=O)N1CCC[C@H]1C(=O)N[C@@H](CO)C(=O)N[C@@H](CO)C(=O)N[C@H](C(=O)N[C@@H](CC(N)=O)C(=O)N[C@H](C(=O)NCC(=O)N[C@@H](CO)C(=O)N[C@@H](CCCNC(=N)N)C(=O)N[C@H](C(=O)N[C@@H](Cc1ccc(O)cc1)C(N)=O)[C@@H](C)O)C(C)C)[C@@H](C)O` [Example 89] (H-K([γGlu-γGlu-C20 diacid])CNTATCATQRLAEFLRHSSPNFGAIPSSTNVGSRTY-NH2; disulfide 2-7 (inferred); N-terminus assumed), the half-inhibitory concentration (IC50) in assay [1] came to 115 nM; in assay [2], 1.16 nM. The “Ratio hCT/hAmylin binding” value in assay [2] (setting [4]), in assay [2] (setting [5]), in assay [2] (setting [6]), in assay [2] (setting [7]), in assay [2] (setting [8]) and in assay [2] (setting [9]) was 28.0 throughout. Besides, in assay [2] (setting [10]), the “Ratio hCT/hAmylin binding” value came out at 28.0. The “Ratio hCT/hAmylin funct.” value in assay [3] (setting [11]), in assay [3] (setting [12]) and in assay [3] (setting [13]) was 27.8 each time. The EC50 in assay [3] worked out at 0.404 nM.

Take `CC[C@H](C)[C@H](NC(=O)[C@H](C)NC(=O)CNC(=O)[C@H](Cc1ccccc1)NC(=O)[C@H](CC(N)=O)NC(=O)[C@@H]1CCCN1C(=O)[C@H](CO)NC(=O)[C@H](CO)NC(=O)[C@H](Cc1c[nH]cn1)NC(=O)[C@H](CCCNC(=N)N)NC(=O)[C@H](CC(C)C)NC(=O)[C@H](Cc1ccccc1)NC(=O)[C@H](CCC(=O)O)NC(=O)[C@H](C)NC(=O)[C@H](CC(C)C)NC(=O)[C@H](CCCNC(=N)N)NC(=O)[C@H](CCC(N)=O)NC(=O)[C@@H](NC(=O)[C@H](C)NC(=O)[C@@H]1CSSC[C@H](NC(=O)[C@@H](N)CCCCNC(=O)CC[C@H](NC(=O)CCCCCCCCCCCCCCCCCCC(=O)O)C(=O)O)C(=O)N[C@@H](CC(N)=O)C(=O)N[C@@H]([C@@H](C)O)C(=O)N[C@@H](C)C(=O)N[C@@H]([C@@H](C)O)C(=O)N1)[C@@H](C)O)C(=O)N1CCC[C@H]1C(=O)N[C@@H](CO)C(=O)N[C@@H](CO)C(=O)N[C@H](C(=O)N[C@@H](CC(N)=O)C(=O)N[C@H](C(=O)NCC(=O)N[C@@H](CCCNC(=N)N)C(=O)N[C@@H](CCC(=O)O)C(=O)N[C@H](C(=O)N[C@@H](Cc1ccc(O)cc1)C(N)=O)[C@@H](C)O)C(C)C)[C@@H](C)O` [Example 108] (H-K([γGlu-C20 diacid])CNTATCATQRLAEFLRHSSPNFGAIPSSTNVGRETY-NH2; disulfide 2-7; N-terminus assumed): the IC50 in assay [1] was determined as 86.1 nM; in assay [2] it was 0.232 nM. Further, the “Ratio hCT/hAmylin binding” value in assay [2] (setting [4]), in assay [2] (setting [5]), in assay [2] (setting [6]), in assay [2] (setting [7]), in assay [2] (setting [8]) and in assay [2] (setting [9]) was 28.5 in each case. Also, the “Ratio hCT/hAmylin binding” value in assay [2] (setting [10]) worked out at 28.5. The “Ratio hCT/hAmylin funct.” value in assay [3] (setting [11]), in assay [3] (setting [12]) and in assay [3] (setting [13]) was 6.5 each time. In addition, the EC50 in assay [3] stood at 0.421 nM.

On to `CC[C@H](C)[C@H](NC(=O)[C@H](C)NC(=O)CNC(=O)[C@H](Cc1ccccc1)NC(=O)[C@H](CC(N)=O)NC(=O)[C@@H]1CCCN1C(=O)[C@H](CO)NC(=O)[C@H](CO)NC(=O)[C@H](Cc1c[nH]cn1)NC(=O)[C@H](CCCNC(=N)N)NC(=O)[C@H](CC(C)C)NC(=O)[C@H](Cc1ccccc1)NC(=O)[C@H](CCC(=O)O)NC(=O)[C@H](C)NC(=O)[C@H](CC(C)C)NC(=O)[C@H](CCCNC(=N)N)NC(=O)[C@H](CCC(N)=O)NC(=O)[C@@H](NC(=O)[C@H](C)NC(=O)[C@@H]1CSSC[C@H](NC(=O)[C@H](CCCCN)NC(=O)CC[C@H](NC(=O)CCCCCCCCCCCCCCCCCCC(=O)O)C(=O)O)C(=O)N[C@@H](CC(N)=O)C(=O)N[C@@H]([C@@H](C)O)C(=O)N[C@@H](C)C(=O)N[C@@H]([C@@H](C)O)C(=O)N1)[C@@H](C)O)C(=O)N1CCC[C@H]1C(=O)N[C@@H](CO)C(=O)N[C@@H](CO)C(=O)N[C@H](C(=O)N[C@@H](CC(N)=O)C(=O)N[C@H](C(=O)NCC(=O)N1CCC[C@H]1C(=O)N[C@@H](CC(N)=O)C(=O)N[C@H](C(=O)N[C@@H](Cc1ccc(O)cc1)C(N)=O)[C@@H](C)O)C(C)C)[C@@H](C)O` [Example 32] ({C20 diacid-γGlu}-KCNTATCATQRLAEFLRHSSPNFGAIPSSTNVGPNTY-NH2; disulfide 2-7), for which the IC50 in assay [1] was 5.98 nM. Further, the “Ratio hCT/hAmylin binding” value in assay [2] (setting [4]), in assay [2] (setting [5]), in assay [2] (setting [8]), in assay [2] (setting [9]) and in assay [2] (setting [10]) was 10.9 throughout. Further, the “Ratio hCT/hAmylin funct.” value in assay [3] (setting [11]), in assay [3] (setting [12]) and in assay [3] (setting [13]) was 6.6 throughout.

Turning to `CC[C@H](C)[C@H](NC(=O)[C@H](C)NC(=O)CNC(=O)[C@H](Cc1ccccc1)NC(=O)[C@H](CC(N)=O)NC(=O)[C@@H]1CCCN1C(=O)[C@H](CO)NC(=O)[C@H](CO)NC(=O)[C@H](Cc1c[nH]cn1)NC(=O)[C@H](CCCNC(=N)N)NC(=O)[C@H](CC(C)C)NC(=O)[C@H](Cc1ccccc1)NC(=O)[C@H](CC(N)=O)NC(=O)[C@H](C)NC(=O)[C@H](CC(C)C)NC(=O)[C@H](CCCNC(=N)N)NC(=O)[C@H](CCC(N)=O)NC(=O)[C@@H](NC(=O)[C@H](C)NC(=O)[C@@H]1CSSC[C@H](NC(=O)[C@@H](N)CCCCNC(=O)CC[C@H](NC(=O)CCCCCCCCCCCCCCCCCCC(=O)O)C(=O)O)C(=O)N[C@@H](CC(N)=O)C(=O)N[C@@H]([C@@H](C)O)C(=O)N[C@@H](C)C(=O)N[C@@H]([C@@H](C)O)C(=O)N1)[C@@H](C)O)C(=O)N1CCC[C@H]1C(=O)N[C@@H](CO)C(=O)N[C@@H](CO)C(=O)N[C@H](C(=O)N[C@@H](CC(N)=O)C(=O)N[C@H](C(=O)NCC(=O)N[C@@H](CO)C(=O)N[C@@H](CCC(=O)O)C(=O)N[C@H](C(=O)N[C@@H](Cc1ccc(O)cc1)C(N)=O)[C@@H](C)O)C(C)C)[C@@H](C)O` [Example 27], the IC50 in assay [1] was 90.2 nM. Further, the “Ratio hCT/hAmylin binding” value in assay [2] (setting [4]), in assay [2] (setting [5]), in assay [2] (setting [6]), in assay [2] (setting [7]), in assay [2] (setting [8]) and in assay [2] (setting [9]) was 41.3 in each case. For the same compound, in assay [2] (setting [10]), the “Ratio hCT/hAmylin binding” value came out at 41.3. Also, the “Ratio hCT/hAmylin funct.” value in assay [3] (setting [11]), in assay [3] (setting [12]) and in assay [3] (setting [13]) was 22.6 in each case.
